In one data set the test system is 70S initiation complexes. Nature of the data set: Peptide bond formation (fMet-[14C]Val dipeptide). Type of data set: biochemical. The conditions noted are these: 30 µM amicoumacin A; 2 min 37 °C; three replicates; intact complexes 77 ± 5%. Here is the method: Initiation complexes and ternary complexes were prepared as described previously[21],[59]. Where necessary initiation complexes were supplemented with rumicidin-1 (1 μM) or amicoumacin A (30 μM) followed by additional incubation for 5 min at 37 °C. To analyze formation of dipeptide fMet-Val, 0.2 μM 70S initiation complexes containing fMet-tRNA^fMet in the P site were mixed with 0.375 μM ternary complexes EF-Tu⋅GTP⋅[^14C]Val-tRNA^Val (444 dpm/pmol) and incubated for 2 min at 37 °C. Then samples were quenched with 1/10 volume of 5 M KOH and hydrolyzed for 30 min at 37 °C. Samples were neutralized with 1/10 volume of glacial acetic acid and analyzed by reversed-phase HPLC on RP8 (Merck) with an acetonitrile gradient in 0.1% trifluoroacetic acid. Percentage of synthesized dipeptide was determined by incorporation of the radioactive label as a ratio of peptide formed to the amount of the 70S ribosomes in the reaction mixture, as described earlier. Experiments were done in three replicates.

In the next data set the test system is E. coli BW25113 ΔsbmA. The data set is classed as cell-based, Escherichia coli. Here is the method: (§1) The reduction of resazurin to resorufin was recorded.
The next data set deals with HaCaT (keratinocytes). Nature of the data set: MTT cytotoxicity. Type of data set: cell-based, human. Here is the method: (§2) Hemolytic activity of the peptides was tested against the fresh suspension of human red blood cells (hRBC) using the hemoglobin release assay as described previously. Two experiments were performed with the hRBC from blood samples collected from healthy donors by certified medical personnel upon informed written consent. All procedures were approved by the Ethics Committee of the Institute of Experimental Medicine (protocol 1/20 of 2/27/2020) and comply with the ethical principles of the Declaration of Helsinki. The quantitative data were represented as average means with standard deviations. The colorimetric 3-(4,5-dimethylthiazol-2-yl)-2,5-diphenyltetrazolium bromide (MTT) dye reduction assay was used to determine cytotoxicity of the peptides against human keratinocyte cell line (HaCaT) and transformed human embryonic kidney cells (HEK293T). Both cell lines were purchased from American Type Culture Collection (ATCC). 10^4 cells per well in Dulbecco’s modified Eagle’s medium (DMEM/F12) supplemented with 10% fetal bovine serum (FBS, Invitrogen) were placed into 96-well plates and then cultured in the CO2-incubator (5% CO2, 37 °C). After the media were removed, the peptides were dissolved in 100 µL of the same medium and added to cell cultures at different final concentrations. 20 h later, 20 μL of MTT (5 mg/mL, Sigma) was added to each well, and the plates were incubated for 4 h at 37 °C. Then, the media were discarded and 100 µL DMSO-isopropanol mixture at a ratio of 1:1 (v/v) was added to each well to dissolve the crystallized formazan. The absorbance at 570 nm was measured by a microplate reader AF2200 (Eppendorf). An optical density in the wells containing cells cultured without the peptides was assumed to represent 100% cell viability. Two independent experiments were performed for each peptide.

The subject of data set [1] is HEK293T (transformed embryonic kidney cells). Nature of the data set: MTT cytotoxicity. Type of data set: cell-based, human. Conditions: mean. Here is the method: as §2
For another data set, the system named is E. coli. The data set is classed as cell-based, Escherichia coli. The text has this:
of bacterial cells washed with sodium phosphate buffer, whereas the addition of 0.9% NaCl and/or divalent cations minimized or even abolished the activity (Supplementary Fig. 14). The same was true for Bac7[1-22] in most cases (Supplementary Fig. 14), except for the maximum […]
“NaPB + 0.9% NaCl”), at which significant outer membrane damage was observed. Thus, in the context of the host immune system operating in a complex environment containing NaCl and divalent cations, the most likely scenario is that rumicidin's ability to disrupt the integrity of the outer membrane is suppressed. Antibacterial activity of rumicidin-1 is inhibited in the presence […]
mixture, respectively), and the electrical double layer around the cell seems to be a key barrier on the way into the cell of highly charged and relatively hydrophilic PrAMP. Perhaps, translocation of rumicidin-1 into the periplasmic space depends on electrostatic interaction with the outer membrane followed by porin-mediated uptake (the gene knockout of ompF resulted in a 4-fold increase in MIC, Fig. 5a). […]
Fig. 4), (iv) experiments on inhibition of peptide bond formation Supplementary Fig. 5, and (v) structural studies of the rumicidin complex with the ribosome by Cryo-EM (Fig.4).
Point 2. Authors claim that the effect of these peptides on membrane integrity may be due to the presence of aromatic Trp and Phe residues in their structure. However, effect of the rumicidin-1 variant W23A,F24A is not shown.
To fill this gap, we performed a comparative analysis of the ability of rumicidin-1 and its analogue [W23A,F24A] to increase the permeability of E. coli membranes under different environmental conditions. In all cases in the […]

A further data set concerns E. cloacae XDR CI 4172. Type of data set: cell-based, Enterobacter cloacae. The conditions noted are these: XDR CI 4172, 24 h. Here is the method: as §1
The subject of another data set is S. aureus ATCC 29213. Type of data set: cell-based, Staphylococcus aureus. Conditions: ATCC 29213, 24 h. Here is the method:
as §1

The next data set has as its system E. coli BW25113. Nature of the data set: MIC broth microdilution. The data set is classed as cell-based, Escherichia coli. The conditions noted are these: 24 h 37 °C, median of ≥3 experiments; for Minimum inhibitory concentration MHB: Mueller-Hinton broth without salt. The method, then:
as §1
(In general: In broth dilution the organism is exposed to a series of concentrations in liquid medium.)

Data set [2] deals with Mycobacterium smegmatis mc(2)155. Type of data set: cell-based. The conditions noted are these: Mycobacterium mc(2)155, 24 h. The method, then:
as §1

Data set [3] relates to human red blood cells (hRBC). Nature of the data set: Hemolysis (hemoglobin release assay). The conditions noted are these: mean. The data set is classed as cell-based. The method, then:
as §2

The subject of data set [4] is E. coli 1057 R2 (rpoS^Q3stop, macB^N470D). Conditions: MHB + 0.9% NaCl. Here is the method:
Minimum inhibitory concentrations (MIC) were determined by broth microdilution assay based on Clinical and Laboratory Standards Institute (CLSI) guidelines using BSA in the growth medium to minimize AMP nonspecific adsorption. Bacterial test cultures were grown in the Mueller-Hinton broth (MHB, Sigma) at 37 °C to mid-log phase and then diluted with the 2× MH medium supplemented with 1.8% NaCl (or without salt) so that to reach a final cell concentration of 10^6 CFU/mL. 50 µL of the obtained bacterial suspension were added to aliquots of 50 µL of the peptide solutions serially diluted with sterilized 0.1% bovine serum albumin (BSA) in 96-well flat-bottom polystyrene microplates (Eppendorf #0030730011). […] To verify MIC values, the respiratory activity of the bacteria was determined. Briefly, 5 µL of 0.5 mg/mL resazurin (Sigma) was added to the wells after 24 h (or after 48 h for M. smegmatis) of incubation, and the plate was incubated for additional 3 h. In some cases, MICs were determined in the Lysogeny Broth (LB) or Middlebrook 7H9 medium. The reduction of resazurin to resorufin was recorded. […] The results were expressed as the median values determined based on at least three independent experiments performed in triplicate.
Resistance induction experiments were performed using the previously described method. This approach allows for monitoring MIC values after each transfer. Briefly, on the first day, the overnight culture of the wild-type bacteria was diluted with the 2× MHB supplemented with 1.8% NaCl (or without salt) to reach a final cell concentration of 10^6 CFU/mL. 50 µL of the obtained bacterial suspension were added to aliquots of 50 µL of the peptide solutions serially diluted with the sterilized 0.1% BSA in 96-well flat-bottom polystyrene microplates. After incubation for 20 ± 2 h at 37 °C and 950 rpm, MICs were determined as described above. For each subsequent daily transfer, 2–4 μL of the inoculum taken from the first well containing a sub-inhibitory drug concentration was diluted with 2 mL of the fresh 2× MHB supplemented with 1.8% NaCl (or without salt). […] Multiple repeated passages in the presence of antimicrobial agents were performed for each bacterial strain during the experiment. Bacteria that grew at the highest concentrations of AMPs on the final day were passaged further 3 times on drug-free agar plates before determining the final MIC value.

The next data set has as its system E. coli 1057 WT. Briefly: microbe, parasite or virus in culture. The data set is classed as cell-based, Escherichia coli. The conditions noted are these: Escherichia coli, 1057WT, 24 h; MHB + 0.9% NaCl.
Data set [5] has as its system E. coli BW25113 ΔtolC pDualrep2. Briefly: pDualrep2 double-reporter assay. Conditions: agar plate, overnight 37 °C. The data set is classed as cell-based, Escherichia coli. The method, then: For in vivo bioactivity test, the reporter strain BW25113 ΔtolC-pDualrep2 was used as previously described. Briefly, 10 µL of solutions of tested peptides (0.2 mM of full-length rumicidin isoforms; 0.5 mM of Rum-1[1-22] and Rum-1[9-29]) were applied to an agar plate contained a lawn of the reporter strain. 5 mg/ml erythromycin (Ery, 1 µL) and 25 µg/ml levofloxacin (Lev, 1 µL) solutions were used as control samples. After being incubated overnight at 37 °C, the plate was scanned by ChemiDoc (Bio-Rad) using “Cy3-blot” settings for RFP and “Cy5-blot” for the Katushka2S protein. At least, two independent experiments were performed, and the observed effects were the same.

A further data set relates to E. coli strains. The conditions noted are these: cited from earlier work. The text has this:
This highly cationic fragment is important for both high affinity binding of Bac7 to the ribosome and its penetration inside bacterial cells. The effect of N-terminal shortening of rumicidin-1 was not so marked: activities of the analogs 4-29 and 6-29 decreased only two-fold, while the MIC values of the analogs 9-29 and 11-29 against E. coli were ≥4- ...

Like-named read-outs stand apart in the source and are kept apart here. Ends that are not written are not given here.

Procedure for E. coli 1057 WT: Minimum inhibitory concentrations (MIC) were determined by broth microdilution assay based on Clinical and Laboratory Standards Institute (CLSI) guidelines using BSA in the growth medium to minimize AMP nonspecific adsorption[49]. Bacterial test cultures were grown in the Mueller-Hinton broth (MHB, Sigma) at 37 °C to mid-log phase and then diluted with the 2× MH medium supplemented with 1.8% NaCl (or without salt) so that to reach a final cell concentration of 10^6 CFU/mL. 50 µL of the obtained bacterial suspension were added to aliquots of 50 µL of the peptide solutions serially diluted with sterilized 0.1% bovine serum albumin (BSA) in 96-well flat-bottom polystyrene microplates (Eppendorf #0030730011). […] To verify MIC values, the respiratory activity of the bacteria was determined. Briefly, 5 µL of 0.5 mg/mL resazurin (Sigma) was added to the wells after 24 h (or after 48 h for M. smegmatis) of incubation, and the plate was incubated for additional 3 h. In some cases, MICs were determined in the Lysogeny Broth (LB) or Middlebrook 7H9 medium. The reduction of resazurin to resorufin was recorded. […] The results were expressed as the median values determined based on at least three independent experiments performed in triplicate.

Consider `CC(C)C[C@H](NC(=O)[C@@H](O)[C@@H](O)[C@@H](N)CC(N)=O)[C@@H]1Cc2cccc(O)c2C(=O)O1` [amicoumacin A], for which the “fMet-[14C]Val dipeptide formed” value in the data set with 70S initiation complexes was found to be 72 ± 7%.

In the case of “RARRPRPPKPRPPHRPRPRPRPWFPPRFP [Rumicidin-1]”, the MIC in the data set with E. coli BW25113 ΔsbmA (MHB + 0.9% NaCl) is at least 64 µM; with E. coli BW25113 ΔsbmA (salt-free MHB), 1 µM; in the data set on E. coli (MH medium with NaCl) it was 4 µM; with E. coli (MH medium with NaCl and divalent cations (mixture)) it was 16 to 32 µM; against E. coli (MH medium with divalent cations) it was 8 µM; in the data set on E. coli (salt-free MH medium) it was 1 µM. For the same molecule, the HaCaT cell viability in the data set on HaCaT (keratinocytes) (1 µM) is recorded as 104.258%; in the data set on HaCaT (keratinocytes) (2 µM), 105.615%; with HaCaT (keratinocytes) (4 µM) it was 107.778%; in the data set on HaCaT (keratinocytes) (8 µM), 104.973%; with HaCaT (keratinocytes) (16 µM), 107.318%; in the data set with HaCaT (keratinocytes) (32 µM), 107.645%. Also, in the data set with HaCaT (keratinocytes) (64 µM), the HaCaT cell viability amounted to 99.839%. Besides, the HEK293T cell viability in [1] (1 µM) is 105.704%; in [1] (2 µM), 104.142%; in data set [1] (4 µM), 106.626%; in [1] (8 µM) it was 103.664%; in data set [1] (16 µM), 105.32%; in [1] (32 µM), 89.704%. The HEK293T cell viability in data set [1] (64 µM) is given as 72.479%. Also, the “MIC E. cloacae XDR CI 4172” value in the data set on E. cloacae XDR CI 4172 worked out at 2 µM. Further, the “MIC S. aureus ATCC 29213” value in the data set on S. aureus ATCC 29213 is above 32 µM. The “Minimum inhibitory concentration MHB + 0.9% NaCl” value in the data set on E. coli BW25113 (Mueller-Hinton broth + 0.9% NaCl, listed as WT) fell in the range of 4 to 8 µM. For the same molecule, the “Minimum inhibitory concentration MHB” value in the data set on E. coli BW25113 came out at 1 µM; in the data set on E. coli BW25113 (listed as WT), 2 µM. Moreover, the “MICs depending on the test medium” value in [2] was 0.125 to 0.5 µM. Also, the Hemolysis in data set [3] (0.25 µM) was found to be 0.134%; in [3] (0.5 µM) it was 0.357%; in [3] (1 µM) it was 0.408%; in [3] (2 µM), 0.624%; in data set [3] (4 µM) it was 0.667%; in data set [3] (8 µM) it was 0.801%. The figures for the Hemolysis in data set [3] (16 µM), in [3] (32 µM) and in data set [3] (64 µM) were 0.83%, 0.911% and 0.932%, respectively.

For “RDRRRRPPRPRPPHRPRPRPLPWFPPRFP [Rumicidin-2]”, the MIC in [4] is above 64 µM. For the same molecule, the “MIC S. aureus ATCC 29213” value in the data set on S. aureus ATCC 29213 was above 32 µM. The “Minimum inhibitory concentration (MIC)” value in data set [2] is 1 µM.

For the molecule `CC[C@H]1OC(=O)[C@H](C)[C@@H](O[C@H]2C[C@@](C)(OC)[C@@H](O)[C@H](C)O2)[C@H](C)[C@@H](O[C@@H]2O[C@H](C)C[C@H](N(C)C)[C@H]2O)[C@](C)(O)C[C@@H](C)C(=O)[C@H](C)[C@@H](O)[C@]1(C)O` [Erythromycin], in the data set with E. coli 1057 WT, the MIC came out at 1020 µM. Besides, the reporter induction entry in [5] was “strongly induced biosynthesis of Katushka2S, but not of RFP”.

With “Bac7[5-23]: Bac7 fragment lacking four N-terminal residues (RRIR) (PRPPRLPRPRPRPLPFPRP; Bactenecin-7; UniProt P19661 135-153, looked up, fragment)”, in the data set with E. coli strains, the “fold increase in MIC on deletion of four N-terminal residues (RRIR)” value was at least 16 fold.

As to “Bac7[5-35]: Bac7 fragment lacking four N-terminal residues (RRIR) (PRPPRLPRPRPRPLPFPRPGPRPIPRPLPFP; Bactenecin-7; UniProt P19661 135-165, looked up, fragment)”, the “fold increase in MIC on deletion of four N-terminal residues (RRIR)” value in the data set on E. coli strains is at least 16 fold.

The record behind these values is PMC11484942, “Rumicidins are a family of mammalian host-defense peptides plugging the 70S ribosome exit tunnel” (Nature Communications, 2024).
